According to US20200164005A1, “PHARMACEUTICAL COMPOSITIONS OF A BILE ACID DERIVATIVE AND MICROBIOME AND USES THEREOF” (Intercept Pharmaceuticals, Inc., priority 2017, published 2020):

Legend:
[1] = test system: bacterial strains found in the human small intestine; assay: Inhibition of bacterial growth by bile acids, microbroth dilution, optical density at 630 nm; type: cell-based; conditions: aerobic or anaerobic
Method: The toxicity of several bile acids to various gut microbiome species was examined. Representative species were exposed to different bile acids at a range of concentrations under either aerobic or anaerobic condition, and the growth of the species at these concentrations was measured by determining the optical density of the culture.
Lactobacillus casei CP was purchased from Custom Probiotics Inc. (Glendale, Calif.) as L. casei Custom Probiotic Powder (strain confirmed by Sanger sequencing of the 16S gene). Pediococcus pentosaceus KE-99 was purchased from Probiohealth (Beverly Hills, Calif.) as KE-99 LACTO Tablet (strain confirmed by Sanger sequencing of the 16S gene). L. casei 393, Streptoccocus thermophilus LMD-9, Akkermansia muciniphila Muc, and Veillonella parvula Te3 were purchased from the American Type Culture Collection (ATCC, Manassas, Va.). Lactococcus lactis NZ9000 was purchased from BOCA Scientific (Boca Raton, Fla.). Escherichia coli Nissle was obtained from Dr. Mark Goulian (University of Pennsylvania, Philadelphia, Pa.).
L. casei, P. pentasaceus, and L. lactis were grown in de Man, Rogosa, and Sharpe (MRS) medium (Anaerobe Systems, Morgan Hill, Calif.); E. coli was grown in lysogeny broth (LB) medium (Fisher Scientific, USA); S. thermophilus and A. muciniphila were grown in brain heart infusion (BHI) medium (Fisher Scientific, USA and Anaerobe Systems, Morgan Hill, Calif.), and; V. parvula was grown in reinforced clostridial medium (Fisher Scientific, USA). Aerobic cultures were incubated at 37° C.; anaerobic cultures were incubated at 37° C. in an anaerobic glove box (Coy Laboratories, Grass Lake, Mich.).
Glycochenodeoxycholic, glycocholic, and taurocholic acids were purchased from Sigma Aldrich (St. Louis, Mo.). Obeticholic acid was provided by Intercept Pharmaceuticals, Inc. (New York, N.Y.).
Inhibition of bacterial growth by bile acids was determined by the microbroth dilution method. Plates were prepared with 100 uL of medium containing the appropriate concentrations of bile acid. Wells were inoculated with 1 uL of an overnight culture, covered, and incubated overnight (3 days for A. muciniphila and V. parvula, which are slow growing organisms). Growth was measured via optical density at 630 nm, and measurements were zeroed against wells containing the appropriate bile acid level with no bacteria. All tests were performed in triplicate. Data is expressed as the percent (%) reduction in growth, which was calculated against controls (i.e., no bile acids). The responses of representative species to different concentrations of bile acids are illustrated by the heat maps shown in FIGS. 53A-53D.

[2] = test system: Lactococcus lactis, Streptococcus thermophilus, and Lactobacillus casei/paracasei; assay: Minimal inhibitory concentrations (MIC) of bile acids and OCA, aerobic and anaerobic; type: cell-based; conditions: millimolar range; aerobic and anaerobic
Text: FIGS. 58A-58B: Minimal inhibitory concentrations (MICs) of selected Gram-positive bacterial species in response treatment with two endogenous bile acids and OCA. […] N=3 per measurement. […] N=3 per measurement.
a (Begley et al., FEMS Microbiol Rev. 29, 625-651 (2005)), and conducted genomic analysis is consistent with the notion that specific Gram-positive taxa become proportionally more abundant during OCA administration due to enhanced proliferation. FXR-dependent inhibition of endogenous bile acid synthesis by OCA may reduce the growth inhibitory effects on Gram-positive bacterial species that are normally sensitive to bile acids. To determine if the three bacterial species with the greatest representation of pathways associated with OCA (FIG. 57A) are sensitive to bile acids, the species-specific minimal inhibitory concentrations (MIC) of the two most predominant bile acids in the human small intestine, glycochenodeoxycholic acid (GCDCA) and glycocholic acid (GCA) were determined (FIG. 58A). Since the environment of the small intestinal lumen may transition from an aerobic to anaerobic state along its length (He et al., Proceedings of the National Academy of Sciences of the United States of America, 96, 4586-4591 (1999)), MICs were determined under both aerobic and anaerobic conditions. […] Consistent with this notion, it has been shown that bile salt hydrolases (BSH), enzymes that are unique to bacteria resident in the mammalian gut where they can enhance bile acid tolerance (Begley et al., FEMS Microbiol Rev. 29, 625-651 (2005)), are missing from the genome of S. thermophilus, which is induced by OCA. It can be supported by showing that these species are sensitive to growth inhibition in vitro when exposed to physiologically-relevant concentrations of conjugated bile acids found in the small intestine. […] Since OCA is a bile acid analogue possibly capable of inhibiting bacterial growth, the MICs of OCA for the same bacterial species were determined (FIG. 58B). […] These findings support the notion that OCA treatment leads to the increased growth of bile acid sensitive bacterial taxa by suppressing endogenous bile acid synthesis.

SMILES: C[C@H](CCC(=O)NCC(=O)O)[C@H]1CC[C@H]2[C@@H]3[C@H](O)C[C@@H]4C[C@H](O)CC[C@]4(C)[C@H]3C[C@H](O)[C@]12C [GCA, glycocholic acid, reference compound]
- growth inhibitory effects on various strains of gram positive bacteria [1]: differential growth inhibitory effects
- growth of all three species at physiologically relevant concentrations [2]: significantly inhibited

SMILES: C[C@H](CCC(=O)NCCS(=O)(=O)O)[C@H]1CC[C@H]2[C@@H]3[C@H](O)C[C@@H]4C[C@H](O)CC[C@]4(C)[C@H]3C[C@H](O)[C@]12C [TCA, taurocholic acid]
- growth inhibitory effects on various strains of gram positive bacteria [1]: differential growth inhibitory effects

SMILES: CC(CCC(=O)NCC(=O)O)C1CCC2C3C(O)CC4CC(O)CCC4(C)C3CCC12C (centres unmarked) [GCDCA, glycochenodeoxycholic acid, reference compound]
- growth inhibitory effects on various strains of gram positive bacteria [1]: differential growth inhibitory effects
- growth of all three species at physiologically relevant concentrations [2]: significantly inhibited
